Results on 20 molecules are retold here after US20260347364A1, “PYRAZOLO[4,3-F]QUINAZOLINE DERIVATIVES AS MODULATORS OF G12D MUTANT KRAS USEFUL FOR THE TREATMENT OF CANCER” (JAZZ PHARMACEUTICALS IRELAND LTD., priority 2023, published 2026).

One assay addresses T1, KRAS WT (Homo sapiens, UniProt P01116).
T1 construct: aa1-188 KRAS WT
In words: HTRF nucleotide exchange assay, KRAS WT. The settings on record: class symbols; for IC50: HTRF nucleotide exchange assay (NEA). In kind it is biochemical. The procedure:
(§1) HTRF Nucleotide Exchange Assay Method
(§2) The capacity of compounds to bind KRAS G12D, other KRAS mutants and wildtype RAS isoforms was quantified using a HTRF nucleotide exchange assay. Recombinant human RAS protein (2 nM; aa1-188 KRAS WT, HRAS WT, NRAS WT, or KRAS containing the G12D, G13D or Q61H amino acid substitutions, or 4 nM KRAS; aa1-188 containing the G12V, G12C, G12A or G12S amino acid substitution, an N-terminal 6× His-tag and leader sequence), and 2 nM Europium-labeled anti-6× His antibody were mixed in assay buffer (10 mM HEPES pH 7.3, 150 mM NaCl, 5 mM MgCl2, 0.05% BSA, 0.0025% NP-40 and 100 mM KF) with various concentrations of compound in a 384-well plate and a volume of 5 μL. After a 60-minute incubation at room temperature, 5 μl of 200 nM EDA-GTP-DY647P1 (diluted in assay buffer) was added to the plate. Following 30-minute incubation at room temperature, time-resolved fluorescence was measured on a PerkinElmer Envision plate reader. DMSO (0.3%) and unlabeled GDP (1 μM) or equivalent tool compound were used to generate the Max and Min assay signals, respectively. Data was analysed using a four-parameter logistic model to calculate IC50 values, with at least two independent replicates were performed for each compound. The results are presented as IC50s in Table 29 where “A” corresponds to an IC50 ≤10 nM, “B” to an IC50 >10 nM up to 100 nM, “C” is >100 nM up to 10 μM, “D” represents <49% inhibition at 10 μM and ND=not determined: […]
(Time-resolved FRET reads energy transfer from a long-lived donor to a nearby acceptor.)

Another assay deals with T2, KRAS G12D (Homo sapiens, UniProt P01116, G12D).
T2 construct: aa1-188 KRAS WT, HRAS WT, NRAS WT, or KRAS containing the G12D
Put plainly: HTRF nucleotide exchange assay, KRAS G12D. The format is biochemical. The conditions noted are these: class symbols; for IC50: HTRF nucleotide exchange assay (NEA). Here is the method: as §1, §2

What is called IC50 is the concentration that inhibits the measured activity by half. For the molecule `CCc1c(F)ccc2cc(O)cc(-c3cc4nc(OCC5(CN(C)C)CC5)nc(N5CCCOCC5)c4c4cn(C)nc34)c12` [Example 30, 4-[7-[[1-[(dimethylamino)methyl]cyclopropyl]methoxy]-2-methyl-9-(1,4-oxazepan-4-yl)pyrazolo[4,3-f]quinazolin-4-yl]-5-ethyl-6-fluoro-naphthalen-2-ol], the IC50 against KRAS WT and on KRAS G12D was 10 to 100 nM each time.

In the case of `CCc1c(F)ccc2cc(O)cc(-c3cc4nc(OCC5CCN(C)CC5)nc(N5CCCOCC5)c4c4cn(C)nc34)c12` [Example 31, 5-ethyl-6-fluoro-4-[2-methyl-7-[(1-methyl-4-piperidyl)methoxy]-9-(1,4-oxazepan-4-yl)pyrazolo[4,3-f]quinazolin-4-yl]naphthalen-2-ol], the IC50 at KRAS WT and against KRAS G12D was 100 to 10000 nM in each case.

As to `CCc1c(F)ccc2cc(O)cc(-c3cc4nc(OCC5CCCN(C)C5)nc(N5CCCOCC5)c4c4cn(C)nc34)c12` (stereo not shown) [Example 32, 5-ethyl-6-fluoro-4-[2-methyl-7-[(1-methyl-3-piperidyl)methoxy]-9-(1,4-oxazepan-4-yl)pyrazolo[4,3-f]quinazolin-4-yl]naphthalen-2-ol], the IC50 against KRAS WT and on KRAS G12D was 100 to 10000 nM each time.

With `C#Cc1c(F)ccc2cc(O)cc(-c3cc4nc(OC[C@@]56CCCN5C[C@H](F)C6)nc(N5CCCC(C)(O)C5)c4c4cn(C)nc34)c12` (stereo partly drawn) [Example 33, 1-[4-(8-ethynyl-7-fluoro-3-hydroxy-1-naphthyl)-2-methyl-7-[[(2R,8S)-2-fluoro-1,2,3,5,6,7-hexahydropyrrolizin-8-yl]methoxy]pyrazolo[4,3-f]quinazolin-9-yl]-3-methyl-piperidin-3-ol], the IC50 on KRAS WT and on KRAS G12D was 10 to 100 nM each time.

For `C#Cc1c(F)ccc2cc(O)cc(-c3cc4nc(OC[C@@]56CCCN5C[C@H](F)C6)nc(N5CC6CNCC6C5)c4c4cn(C)nc34)c12` (stereo partly drawn) [Example 34, 4-[9-(2,3,3a,4,6,6a-hexahydro-1H-pyrrolo[3,4-c]pyrrol-5-yl)-2-methyl-7-[[(2R,8S)-2-fluoro-1,2,3,5,6,7-hexahydropyrrolizin-8-yl]methoxy]pyrazolo[4,3-f]quinazolin-4-yl]-5-ethynyl-6-fluoro-naphthalen-2-ol], the IC50 is 100 to 10000 nM against KRAS WT and not above 10 nM against KRAS G12D.

For the molecule `C#Cc1c(F)ccc2cc(O)cc(-c3cc4nc(OC[C@@]56CCCN5C[C@H](F)C6)nc(N5CC6C(=O)NC(=O)C6C5)c4c4cn(C)nc34)c12` (stereo partly shown) [Example 37], the “KRAS^WT NEA” value at KRAS WT was “D (<49% inhibition at 10 μM)”. At KRAS G12D, this molecule gave an IC50 of 100 to 10000 nM.

`Cn1cc2c(n1)c(-c1cc(O)ccc1OC(F)(F)F)cc1nc(OC[C@@]34CCCN3C[C@H](F)C4)nc(N3CCCOCC3)c12` [Example 38, 3-[2-methyl-9-(1,4-oxazepan-4-yl)-7-[[(2R,8S)-2-fluoro-1,2,3,5,6,7-hexahydropyrrolizin-8-yl]methoxy]pyrazolo[4,3-f]quinazolin-4-yl]-4-(trifluoromethoxy)phenol]: the IC50 against KRAS WT and at KRAS G12D was 100 to 10000 nM in each case.

Turning to `Cn1cc2c(n1)c(-c1cc(O)cc3ccc(F)c(F)c13)cc1nc(OC[C@@]34CCCN3C[C@H](F)C4)nc(N3CCCOCC3)c12` [Example 39], the IC50 at KRAS WT and against KRAS G12D was 10 to 100 nM throughout.

With `CCc1c(F)ccc2cc(O)cc(-c3cc4nc(OC[C@@]56CCCN5C[C@H](F)C6)nc(N5CCOC[C@@](C)(O)C5)c4c4cn(C)nc34)c12` [Example 40, (6S)-4-[4-(8-ethyl-7-fluoro-3-hydroxy-1-naphthyl)-2-methyl-7-[[(2R,8S)-2-fluoro-1,2,3,5,6,7-hexahydropyrrolizin-8-yl]methoxy]pyrazolo[4,3-f]quinazolin-9-yl]-6-methyl-1,4-oxazepan-6-ol], the IC50 at KRAS WT and on KRAS G12D was not above 10 nM throughout.

Turning to `CCc1c(F)ccc2cc(O)cc(-c3cc4nc(OC[C@@]56CCCN5C[C@H](F)C6)nc(N5CCOC[C@](C)(O)C5)c4c4cn(C)nc34)c12` [Example 41, (6R)-4-[4-(8-ethyl-7-fluoro-3-hydroxy-1-naphthyl)-2-methyl-7-[[(2R,8S)-2-fluoro-1,2,3,5,6,7-hexahydropyrrolizin-8-yl]methoxy]pyrazolo[4,3-f]quinazolin-9-yl]-6-methyl-1,4-oxazepan-6-ol], the IC50 against KRAS WT and on KRAS G12D was 10 to 100 nM throughout.

On to `CCc1c(F)ccc2cc(O)cc(-c3cc4nc(OC[C@@]56CCCN5C[C@H](F)C6)nc(N5CCCC(O)CC5)c4c4cn(C)nc34)c12` (stereo partly drawn) [Example 42, 1-[4-(8-ethyl-7-fluoro-3-hydroxy-1-naphthyl)-2-methyl-7-[[(2R,8S)-2-fluoro-1,2,3,5,6,7-hexahydropyrrolizin-8-yl]methoxy]pyrazolo[4,3-f]quinazolin-9-yl]azepan-4-ol], for which the IC50 against KRAS WT and against KRAS G12D was 10 to 100 nM throughout.

Turning to `C#Cc1c(F)ccc2cc(O)cc(-c3cc4nc(OC[C@@]56CCCN5C[C@H](F)C6)nc(N5CCCCC(C)(O)C5)c4c4cn(C)nc34)c12` (stereo partly shown) [Example 43], the IC50 against KRAS WT and against KRAS G12D was not above 10 nM throughout.

In the case of `CCc1c(F)ccc2cc(O)cc(-c3cc4nc(OC[C@@]56CCCN5C[C@H](F)C6)nc(N5CCCOCC5)c4c4cn(C5CC5)nc34)c12` [Example 44, 4-[2-cyclopropyl-9-(1,4-oxazepan-4-yl)-7-[[(2R,8S)-2-fluoro-1,2,3,5,6,7-hexahydropyrrolizin-8-yl]methoxy]pyrazolo[4,3-f]quinazolin-4-yl]-5-ethyl-6-fluoro-naphthalen-2-ol], the IC50 against KRAS WT and at KRAS G12D was 10 to 100 nM in each case.

With `CCc1c(F)ccc2cc(O)cc(-c3c(F)c4nc(OC[C@@]56CCCN5C[C@H](F)C6)cc(N5CCCOCC5)c4c4cn(C)nc34)c12` [Example 45, 5-ethyl-6-fluoro-4-[5-fluoro-2-methyl-9-(1,4-oxazepan-4-yl)-7-[[(2R,8S)-2-fluoro-1,2,3,5,6,7-hexahydropyrrolizin-8-yl]methoxy]pyrazolo[4,3-f]quinolin-4-yl]naphthalen-2-ol], the IC50 on KRAS WT and on KRAS G12D was 100 to 10000 nM each time.

At KRAS WT, `CCc1c(F)ccc2cc(O)cc(-c3cc4nc(OC[C@@]56CCCN5C[C@H](F)C6)nc(N5CCCOCC5)c4c4cnn(C)c34)c12` [Example 46, 5-ethyl-6-fluoro-4-[3-methyl-9-(1,4-oxazepan-4-yl)-7-[[(2R,8S)-2-fluoro-1,2,3,5,6,7-hexahydropyrrolizin-8-yl]methoxy]pyrazolo[4,3-f]quinazolin-4-yl]naphthalen-2-ol] had an IC50 of 100 to 10000 nM. Besides, at KRAS G12D, the “KRAS^G12D NEA” value was “D (<49% inhibition at 10 μM)”.

As to `CCc1c(F)ccc2cc(O)cc(-c3cc4nc(OCC56CCCN5CCC6)nc(N5CCCOCC5)c4c4[nH]ncc34)c12` [Example 47, 5-ethyl-6-fluoro-4-[7-(1,2,3,5,6,7-hexahydropyrrolizin-8-ylmethoxy)-9-(1,4-oxazepan-4-yl)-1H-pyrazolo[3,4-f]quinazolin-4-yl]naphthalen-2-ol], the IC50 on KRAS WT and against KRAS G12D was 100 to 10000 nM each time.

Turning to `Cn1ncc2c3c(N4CCCOCC4)nc(OC[C@@]45CCCN4C[C@H](F)C5)nc3cc(-c3cc(O)cc4ccccc34)c21` [Example 48, 4-[3-methyl-9-(1,4-oxazepan-4-yl)-7-[[(2R,8S)-2-fluoro-1,2,3,5,6,7-hexahydropyrrolizin-8-yl]methoxy]pyrazolo[4,3-f]quinazolin-4-yl]naphthalen-2-ol], the “KRAS^WT NEA” value at KRAS WT was “D (<49% inhibition at 10 μM)”. Besides, the “KRAS^G12D NEA” value at KRAS G12D is reported as “D (<49% inhibition at 10 μM)”.

As for `CCc1c(F)ccc2cc(O)cc(-c3cc4nc(OC[C@@H]5C[C@H](C)CN5)nc(N5CCCn6nc(C(=O)N(C)C)cc6C5)c4c4cn(C)nc34)c12` [Example 49, 5-[4-(8-ethyl-7-fluoro-3-hydroxy-1-naphthyl)-2-methyl-7-[[(2S,4S)-4-methylpyrrolidin-2-yl]methoxy]pyrazolo[4,3-f]quinazolin-9-yl]-N,N-dimethyl-4,6,7,8-tetrahydropyrazolo[1,5-a][1,4]diazepine-2-carboxamide], the IC50 against KRAS WT fell in the range of 100 to 10000 nM. Further, the “KRAS^G12D NEA” value on KRAS G12D is listed as “D (<49% inhibition at 10 μM)”.

With `CCc1c(F)ccc2cc(O)cc(-c3cc4nc(OC[C@@H]5CCN5)nc(N5CCCn6nc(C(=O)N(C)C)cc6C5)c4c4cn(C)nc34)c12` [Example 50, 5-[4-(8-ethyl-7-fluoro-3-hydroxy-1-naphthyl)-2-methyl-7-[[(2S)-azetidin-2-yl]methoxy]pyrazolo[4,3-f]quinazolin-9-yl]-N,N-dimethyl-4,6,7,8-tetrahydropyrazolo[1,5-a][1,4]diazepine-2-carboxamide], the IC50 is 10 to 100 nM on KRAS WT and not above 10 nM against KRAS G12D.

`CCc1c(F)ccc2cc(O)cc(-c3cc4nc(OC[C@@H]5C[C@@H](OC)CN5)nc(N5CCCn6nc(C(=O)N(C)C)cc6C5)c4c4cn(C)nc34)c12` [Example 51]: the IC50 at KRAS WT is 10 to 100 nM; at KRAS G12D, not above 10 nM.
